Our source for the Activity and IC50 values is ChEMBL document CHEMBL4390652, “Design, biological evaluation and X-ray crystallography of nanomolar multifunctional ligands targeting simultaneously acetylcholinesterase and glycogen synthase kinase-3” (Eur J Med Chem, 2019).

The target in assay [1] is Serine/threonine-protein kinase Sgk3 (Homo sapiens) (UniProt Q96BR1). Put plainly: Binding affinity to wild-type human partial length SGK3 (M119 to L496 residues) expressed in mammalian expression system assessed as residual binding level at 10 uM by Kinomescan method relative to control.
In assay [2] the test system is Epidermal growth factor receptor (Homo sapiens), P00533 [L858R,T790M]. The experiment in a line: Binding affinity to human partial length EGFR L858R/T790M double mutant (R669 to V1011 residues) expressed in mammalian expression system assessed as residual binding level at 10 uM by Kinomescan method relative to control.
Assay [3] has as its target Serine/threonine-protein kinase WNK1 (Homo sapiens) (UniProt Q9H4A3). Put plainly: Binding affinity to wild-type human partial length WNK1 (Q194 to A490 residues) expressed in mammalian expression system assessed as residual binding level at 10 uM by Kinomescan method relative to control.
For assay [4], the target named is Fibroblast growth factor receptor 2 (Homo sapiens) (UniProt P21802). Put plainly: Binding affinity to wild-type human partial length FGFR2 (D457 to E769 residues) expressed in bacterial expression system assessed as residual binding level at 10 uM by Kinomescan method relative to control.
In assay [5] the test system is Phosphatidylinositol 4,5-bisphosphate 3-kinase catalytic subunit alpha isoform (Homo sapiens), P42336 [Q546K]. Put plainly: Binding affinity to human partial length PIK3CA Q546K mutant (R108 to N1068 residues) expressed in mammalian expression system assessed as residual binding level at 10 uM by Kinomescan method relative to control.
In assay [6] the test system is Hepatocyte growth factor receptor (Homo sapiens), P08581 [Y1235D]. Put plainly: Binding affinity to human partial length MET Y1235D mutant (D1010 to S1367 residues) expressed in bacterial expression system assessed as residual binding level at 10 uM by Kinomescan method relative to control.
Assay [7] has as its target Myotonin-protein kinase (Homo sapiens) (UniProt Q09013). The experiment in a line: Binding affinity to wild-type human partial length DMPK (V47 to V415 residues) expressed in bacterial expression system assessed as residual binding level at 10 uM by Kinomescan method relative to control.
The target of assay [8] is Dual specificity protein kinase CLK2 (Homo sapiens) (UniProt P49760). The experiment in a line: Binding affinity to wild-type human partial length CLK2 (D144 to R498 residues) expressed in bacterial expression system assessed as residual binding level at 10 uM by Kinomescan method relative to control.
Assay [9] concerns the target High affinity nerve growth factor receptor (Homo sapiens) (UniProt P04629). Put plainly: Binding affinity to wild-type human partial length TRKA (G475 to G790 residues) expressed in mammalian expression system assessed as residual binding level at 10 uM by Kinomescan method relative to control.
The target of assay [10] is Tyrosine-protein kinase Fgr (Homo sapiens) (UniProt P09769). The experiment in a line: Binding affinity to wild-type human partial length FGR (L233 to T529 residues) expressed in bacterial expression system assessed as residual binding level at 10 uM by Kinomescan method relative to control.
The test system of assay [11] is Caco-2. Put plainly: Cytotoxicity against human Caco2 cells assessed as growth inhibition incubated for 48 hrs by Hoechst 33342 staining based assay. As to conditions: Caco-2, 48 h. It counts as cell-based.
Assay [12] deals with Citron Rho-interacting kinase (Homo sapiens) (UniProt O14578). Put plainly: Binding affinity to wild-type human partial length CIT (M68 to E432 residues) expressed in bacterial expression system assessed as residual binding level at 10 uM by Kinomescan method relative to control.
The test system of assay [13] is Tyrosine-protein kinase ABL1 (Homo sapiens), P00519 [F317I]. Put plainly: Binding affinity to human phosphorylated ABL1 F317I mutant (S229 to K512 residues) expressed in mammalian expression system assessed as residual binding level at 10 uM by Kinomescan method relative to control.
Assay [14] deals with Dual specificity protein kinase CLK3 (Homo sapiens) (UniProt P49761). The experiment in a line: Binding affinity to wild-type human full length CLK3 (M1 to R490 residues) expressed in bacterial expression system assessed as residual binding level at 10 uM by Kinomescan method relative to control.
The target of assay [15] is Dual specificity tyrosine-phosphorylation-regulated kinase 2 (Homo sapiens) (UniProt Q92630). The experiment in a line: Binding affinity to wild-type human full length DYRK2 (M1 to S528 residues) expressed in mammalian expression system assessed as residual binding level at 10 uM by Kinomescan method relative to control.
Assay [16] deals with Microtubule-associated serine/threonine-protein kinase 1 (Homo sapiens) (UniProt Q9Y2H9). Put plainly: Binding affinity to wild-type human partial length MAST1 (S346 to V730 residues) expressed in mammalian expression system assessed as residual binding level at 10 uM by Kinomescan method relative to control.
For assay [17], the target named is Serine/threonine-protein kinase PAK 5 (Homo sapiens) (UniProt Q9P286). Put plainly: Binding affinity to wild-type human partial length PAK7 (Y400 to H719 residues) expressed in bacterial expression system assessed as residual binding level at 10 uM by Kinomescan method relative to control.
Assay [18] has as its target Interferon-induced, double-stranded RNA-activated protein kinase (Homo sapiens) (UniProt P19525). Put plainly: Binding affinity to wild-type human partial length PRKR (F247 to C551 residues) expressed in bacterial expression system assessed as residual binding level at 10 uM by Kinomescan method relative to control.
For assay [19], the target named is Serine/threonine-protein kinase D1 (Homo sapiens) (UniProt Q15139). Put plainly: Binding affinity to wild-type human partial length PRKD1 (G551 to E870 residues) expressed in bacterial expression system assessed as residual binding level at 10 uM by Kinomescan method relative to control.
Assay [20] addresses Membrane-associated tyrosine- and threonine-specific cdc2-inhibitory kinase (Homo sapiens) (UniProt Q99640). Put plainly: Binding affinity to wild-type human partial length PKMYT1 (A88 to G366 residues) expressed in bacterial expression system assessed as residual binding level at 10 uM by Kinomescan method relative to control.
The target of assay [21] is Interleukin-1 receptor-associated kinase 3 (Homo sapiens) (UniProt Q9Y616). Put plainly: Binding affinity to wild-type human partial length IRAK3 (V147 to E596 residues) expressed in bacterial expression system assessed as residual binding level at 10 uM by Kinomescan method relative to control.
The target of assay [22] is Ephrin type-A receptor 2 (Homo sapiens) (UniProt P29317). Put plainly: Binding affinity to wild-type human partial length EPHA2 (T593 to V891 residues) expressed in bacterial expression system assessed as residual binding level at 10 uM by Kinomescan method relative to control.
Assay [23] concerns the target BMP-2-inducible protein kinase (Homo sapiens) (UniProt Q9NSY1). Put plainly: Binding affinity to wild-type human partial length BIKE (S34 to N329 residues) expressed in bacterial expression system assessed as residual binding level at 10 uM by Kinomescan method relative to control.
The test system of assay [24] is Mast/stem cell growth factor receptor Kit (Homo sapiens), P10721 [A829P]. The experiment in a line: Binding affinity to human partial length KIT A829P mutant (I571 to D952 residues) expressed in mammalian expression system assessed as residual binding level at 10 uM by Kinomescan method relative to control.

The structures appear in SMILES notation.

Serine/threonine-protein kinase D1 (Homo sapiens), sequence (Q15139 whole entry, the tested form may be a part): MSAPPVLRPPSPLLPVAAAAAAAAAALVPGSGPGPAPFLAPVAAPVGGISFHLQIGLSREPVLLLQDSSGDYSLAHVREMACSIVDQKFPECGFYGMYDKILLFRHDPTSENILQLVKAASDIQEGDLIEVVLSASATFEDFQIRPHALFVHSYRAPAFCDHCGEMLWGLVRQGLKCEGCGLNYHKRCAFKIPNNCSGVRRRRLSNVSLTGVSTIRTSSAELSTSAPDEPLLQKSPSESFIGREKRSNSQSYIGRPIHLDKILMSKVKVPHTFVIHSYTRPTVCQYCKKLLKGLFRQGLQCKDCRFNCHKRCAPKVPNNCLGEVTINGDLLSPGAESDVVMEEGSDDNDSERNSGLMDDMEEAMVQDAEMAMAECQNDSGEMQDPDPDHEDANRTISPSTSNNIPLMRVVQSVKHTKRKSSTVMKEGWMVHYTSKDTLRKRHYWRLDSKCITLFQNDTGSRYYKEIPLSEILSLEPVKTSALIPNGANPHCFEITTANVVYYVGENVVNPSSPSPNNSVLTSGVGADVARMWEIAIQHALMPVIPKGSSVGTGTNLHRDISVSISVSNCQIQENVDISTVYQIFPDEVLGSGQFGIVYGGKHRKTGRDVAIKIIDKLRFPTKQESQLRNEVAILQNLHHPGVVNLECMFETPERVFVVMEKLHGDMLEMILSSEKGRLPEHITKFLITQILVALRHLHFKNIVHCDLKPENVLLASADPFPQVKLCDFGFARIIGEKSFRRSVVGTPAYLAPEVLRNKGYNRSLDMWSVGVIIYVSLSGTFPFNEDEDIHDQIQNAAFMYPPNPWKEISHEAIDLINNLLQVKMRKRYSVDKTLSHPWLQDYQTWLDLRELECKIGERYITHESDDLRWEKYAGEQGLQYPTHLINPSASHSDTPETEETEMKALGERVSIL
Citron Rho-interacting kinase (Homo sapiens), sequence (O14578 whole entry, the tested form may be a part): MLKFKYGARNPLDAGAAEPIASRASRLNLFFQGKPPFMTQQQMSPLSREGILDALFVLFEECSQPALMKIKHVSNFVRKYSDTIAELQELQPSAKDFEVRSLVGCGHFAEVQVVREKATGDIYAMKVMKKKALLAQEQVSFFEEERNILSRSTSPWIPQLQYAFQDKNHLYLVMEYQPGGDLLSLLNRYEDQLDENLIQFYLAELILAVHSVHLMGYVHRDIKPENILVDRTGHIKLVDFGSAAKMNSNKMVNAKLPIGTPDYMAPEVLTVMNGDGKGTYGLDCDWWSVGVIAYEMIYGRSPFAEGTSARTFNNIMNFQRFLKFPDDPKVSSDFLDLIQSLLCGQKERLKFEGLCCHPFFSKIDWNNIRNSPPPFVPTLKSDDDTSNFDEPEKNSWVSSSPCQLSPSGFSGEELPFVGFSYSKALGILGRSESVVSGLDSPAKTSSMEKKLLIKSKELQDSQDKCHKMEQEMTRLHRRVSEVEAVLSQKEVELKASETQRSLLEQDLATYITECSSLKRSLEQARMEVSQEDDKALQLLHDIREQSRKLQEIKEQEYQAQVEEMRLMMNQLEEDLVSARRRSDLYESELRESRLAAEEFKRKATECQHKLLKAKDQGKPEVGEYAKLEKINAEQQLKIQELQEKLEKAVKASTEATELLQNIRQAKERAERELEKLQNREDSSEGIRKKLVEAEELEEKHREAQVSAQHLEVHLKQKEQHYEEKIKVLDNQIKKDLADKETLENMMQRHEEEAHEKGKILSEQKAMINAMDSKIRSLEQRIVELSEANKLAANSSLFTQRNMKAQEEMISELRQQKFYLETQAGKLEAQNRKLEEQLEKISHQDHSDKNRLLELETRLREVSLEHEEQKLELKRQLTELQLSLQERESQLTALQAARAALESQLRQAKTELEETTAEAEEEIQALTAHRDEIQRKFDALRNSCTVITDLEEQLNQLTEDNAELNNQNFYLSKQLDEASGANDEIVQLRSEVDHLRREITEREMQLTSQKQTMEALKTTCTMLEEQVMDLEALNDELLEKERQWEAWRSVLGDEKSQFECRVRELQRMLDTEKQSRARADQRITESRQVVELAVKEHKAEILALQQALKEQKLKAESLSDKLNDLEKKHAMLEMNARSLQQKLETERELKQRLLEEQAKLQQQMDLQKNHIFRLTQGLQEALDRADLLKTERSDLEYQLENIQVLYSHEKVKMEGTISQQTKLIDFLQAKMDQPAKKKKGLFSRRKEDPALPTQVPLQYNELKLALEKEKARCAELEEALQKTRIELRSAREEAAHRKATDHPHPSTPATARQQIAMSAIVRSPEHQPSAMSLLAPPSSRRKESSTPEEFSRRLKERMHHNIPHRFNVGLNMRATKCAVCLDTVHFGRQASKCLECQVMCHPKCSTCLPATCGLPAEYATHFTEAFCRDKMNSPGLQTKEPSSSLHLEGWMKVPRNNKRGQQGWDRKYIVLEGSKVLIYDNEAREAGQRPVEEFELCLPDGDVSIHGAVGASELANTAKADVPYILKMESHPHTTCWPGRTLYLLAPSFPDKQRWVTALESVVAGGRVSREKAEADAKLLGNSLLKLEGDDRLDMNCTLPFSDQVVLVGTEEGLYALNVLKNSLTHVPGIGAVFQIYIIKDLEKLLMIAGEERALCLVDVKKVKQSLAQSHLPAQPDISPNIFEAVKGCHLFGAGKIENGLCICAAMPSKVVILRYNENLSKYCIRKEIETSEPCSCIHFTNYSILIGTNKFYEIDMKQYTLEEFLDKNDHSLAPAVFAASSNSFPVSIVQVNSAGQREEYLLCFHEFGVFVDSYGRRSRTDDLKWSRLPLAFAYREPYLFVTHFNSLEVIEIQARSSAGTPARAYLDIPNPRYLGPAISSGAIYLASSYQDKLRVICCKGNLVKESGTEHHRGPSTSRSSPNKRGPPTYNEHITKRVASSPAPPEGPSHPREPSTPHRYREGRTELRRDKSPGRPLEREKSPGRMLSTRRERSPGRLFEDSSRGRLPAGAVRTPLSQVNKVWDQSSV
Membrane-associated tyrosine- and threonine-specific cdc2-inhibitory kinase (Homo sapiens), sequence (Q99640 whole entry, the tested form may be a part): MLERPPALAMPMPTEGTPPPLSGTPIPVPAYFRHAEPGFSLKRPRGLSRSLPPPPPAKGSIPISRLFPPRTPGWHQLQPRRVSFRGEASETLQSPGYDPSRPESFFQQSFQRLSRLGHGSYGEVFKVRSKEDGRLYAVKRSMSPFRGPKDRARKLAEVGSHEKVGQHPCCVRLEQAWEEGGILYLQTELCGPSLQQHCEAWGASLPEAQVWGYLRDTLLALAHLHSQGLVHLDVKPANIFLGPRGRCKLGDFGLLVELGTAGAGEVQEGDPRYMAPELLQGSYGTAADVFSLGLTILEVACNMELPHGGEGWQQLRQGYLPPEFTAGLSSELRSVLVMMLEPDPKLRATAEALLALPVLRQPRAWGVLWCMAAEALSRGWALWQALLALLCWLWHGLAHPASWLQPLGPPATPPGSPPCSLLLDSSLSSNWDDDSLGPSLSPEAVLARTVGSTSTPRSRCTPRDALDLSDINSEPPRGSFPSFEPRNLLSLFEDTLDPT
Tyrosine-protein kinase ABL1 (Homo sapiens), P00519 [F317I], sequence (P00519 whole entry F317I, the tested form may be a part): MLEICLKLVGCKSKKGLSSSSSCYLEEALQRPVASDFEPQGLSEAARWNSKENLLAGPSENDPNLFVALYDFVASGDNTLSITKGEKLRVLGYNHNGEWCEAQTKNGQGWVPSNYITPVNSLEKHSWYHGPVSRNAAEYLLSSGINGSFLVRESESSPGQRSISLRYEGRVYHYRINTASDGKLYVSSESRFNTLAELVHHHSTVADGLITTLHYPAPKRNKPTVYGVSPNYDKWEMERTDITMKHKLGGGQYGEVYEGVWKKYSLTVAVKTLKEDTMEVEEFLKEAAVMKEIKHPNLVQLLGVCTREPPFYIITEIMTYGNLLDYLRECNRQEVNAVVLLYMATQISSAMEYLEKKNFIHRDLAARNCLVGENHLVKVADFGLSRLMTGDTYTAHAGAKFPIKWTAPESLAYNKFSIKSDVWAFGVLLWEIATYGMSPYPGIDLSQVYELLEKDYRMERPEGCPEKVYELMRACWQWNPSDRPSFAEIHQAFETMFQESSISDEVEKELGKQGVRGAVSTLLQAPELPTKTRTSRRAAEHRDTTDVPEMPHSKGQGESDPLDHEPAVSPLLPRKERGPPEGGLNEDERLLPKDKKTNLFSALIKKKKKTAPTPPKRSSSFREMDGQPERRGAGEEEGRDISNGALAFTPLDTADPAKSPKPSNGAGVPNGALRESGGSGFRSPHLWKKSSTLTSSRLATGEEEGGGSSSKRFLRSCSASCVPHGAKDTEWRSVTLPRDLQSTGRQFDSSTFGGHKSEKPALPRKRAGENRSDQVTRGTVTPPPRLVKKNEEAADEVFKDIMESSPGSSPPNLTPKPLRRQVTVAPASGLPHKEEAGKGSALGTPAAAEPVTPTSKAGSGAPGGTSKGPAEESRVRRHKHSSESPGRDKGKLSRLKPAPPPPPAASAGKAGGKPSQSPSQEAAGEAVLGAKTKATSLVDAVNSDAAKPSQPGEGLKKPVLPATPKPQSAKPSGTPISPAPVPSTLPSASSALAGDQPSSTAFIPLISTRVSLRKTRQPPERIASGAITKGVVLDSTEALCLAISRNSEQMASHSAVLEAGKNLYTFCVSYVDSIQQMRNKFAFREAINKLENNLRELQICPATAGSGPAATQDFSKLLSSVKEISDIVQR
Interferon-induced, double-stranded RNA-activated protein kinase (Homo sapiens), sequence (P19525 whole entry, the tested form may be a part): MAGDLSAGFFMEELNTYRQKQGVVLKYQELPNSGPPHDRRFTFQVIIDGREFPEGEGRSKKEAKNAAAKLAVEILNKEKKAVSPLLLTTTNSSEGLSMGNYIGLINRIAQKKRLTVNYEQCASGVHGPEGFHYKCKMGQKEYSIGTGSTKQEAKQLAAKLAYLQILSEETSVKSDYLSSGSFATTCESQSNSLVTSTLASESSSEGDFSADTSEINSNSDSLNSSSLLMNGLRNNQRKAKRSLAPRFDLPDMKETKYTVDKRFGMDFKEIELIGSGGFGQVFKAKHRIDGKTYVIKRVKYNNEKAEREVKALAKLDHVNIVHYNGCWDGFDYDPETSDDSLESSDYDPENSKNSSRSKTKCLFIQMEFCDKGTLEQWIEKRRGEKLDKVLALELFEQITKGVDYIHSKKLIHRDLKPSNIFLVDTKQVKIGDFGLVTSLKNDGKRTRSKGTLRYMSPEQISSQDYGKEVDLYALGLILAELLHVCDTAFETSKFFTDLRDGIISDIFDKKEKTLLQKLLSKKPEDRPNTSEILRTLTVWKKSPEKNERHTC

For `O=C(Nc1cc(-c2cn(CCNc3c4c(nc5ccccc35)CCCC4)nn2)ccn1)Nc1cccc2c1C1CCCCN1C2=O` (racemic), the Activity turned out to be 1.3% in assay [1]; 87% in [2]; 100% in [3]; 21% in [4]; 84% in assay [5]; 88% in [6]. For the same compound, the Activity came to 18% in [7]; 24% in assay [8]; 8.6% in assay [9]; 97% in [10]; 0.95% in assay [12]; 47% in [13]. For the same compound, the Activity in assay [14] is 100%; in [15], 53%; in assay [16] it was 100%; in assay [17] it was 8.9%; in assay [18] it was 45%; in [19], 24%. In addition, the Activity worked out at 90% in [20]; 16% in assay [21]; 91% in assay [22]; 2.3% in assay [23]; 3.9% in assay [24]. The IC50 in assay [11] was found to be 3 µM.
